Test results as given in ChEMBL document CHEMBL5241117, “Current leishmaniasis drug discovery” (RSC Med Chem, 2022).

Columns and labels:
Leishmania donovani [1] = experiment: Antileishmanial activity against Leishmania donovani; type: functional, organism-based
[2] = Cytotoxicity against human THP-1 cells; type: toxicity, cell-based
Leishmania donovani [3] = experiment: Antileishmanial activity against Leishmania donovani infected in mouse model of visceral leishmaniasis assessed as reduction in parasite load at 25 mg/kg, po administered for 10 days; type: functional; design: scale not given: the % may be the effect or the level left; settings: time 10 day
Leishmania donovani [4] = experiment: Antileishmanial activity against Leishmania donovani infected in mouse model of visceral leishmaniasis assessed as reduction in parasite load; type: functional; design: scale not given: the % may be the effect or the level left

| EC50 (Leishmania donovani [1]) | Structure (SMILES) | EC50 [2] | Activity (Leishmania donovani [3]) | Activity (Leishmania donovani [4]) |
| --- | --- | --- | --- | --- |
| 0.9 µM | CCCCCCCCCCCCCCCCOP(=O)([O-])OCC[N+](C)(C)C [MILTEFOSINE] |  |  |  |
| 1.4 µM | C[C@H]1CN(c2n[nH]c3nc(N[C@H]4CC[C@H](NS(=O)(=O)CCC(F)(F)F)CC4)ncc23)CCO1 [GSK-3186899] | > 50 µM | 99% |  |
|  | O=C(Nc1ccc(F)c(-c2ccn3c(N4CCOCC4)cnc3n2)c1)N1CCCC1 [GSK-3494245] |  |  | 95% |

| Structure (SMILES) | EC50 (Leishmania donovani [1]) | EC50 [2] | Activity (Leishmania donovani [3]) | Activity (Leishmania donovani [4]) |
| --- | --- | --- | --- | --- |
| NC[C@@H]1O[C@H](O[C@H]2[C@@H](O)[C@H](O[C@@H]3[C@@H](O)[C@H](N)C[C@H](N)[C@H]3O[C@H]3O[C@H](CO)[C@@H](O)[C@H](O)[C@H]3N)O[C@@H]2CO)[C@H](N)[C@@H](O)[C@@H]1O [PAROMOMYCIN] | 6.6 µM |  |  |  |
